± gives the expanded uncertainty stated by the source.
Assay: mn = molality of the nth substance listed, in mol/kg
Settings: 101.3 kPa, Liquid; for viscosity: Capillary tube (Ostwald / Ubbelohde) method; for mass density: Vibrating tube method

O=C[C@H](O)[C@@H](O)[C@H](O)[C@H](O)CO [D-glucose] + O
Settings	mass density, 293.15 K [kg/m3]	mass density, 303.15 K [kg/m3]	mass density, 313.15 K [kg/m3]	viscosity, 293.15 K [mPa·s]	viscosity, 303.15 K [mPa·s]	viscosity, 313.15 K [mPa·s]
m1 = 0.5	1030.7 ± 0.2	1027.7 ± 0.2	1024 ± 0.2	1.256 ± 0.011	0.988 ± 0.009	0.801 ± 0.007
m1 = 1	1059.7 ± 0.2	1056.4 ± 0.2	1052.4 ± 0.2	1.587 ± 0.014	1.231 ± 0.011	0.985 ± 0.009
m1 = 1.5	1085.4 ± 0.3	1081.8 ± 0.3	1077.6 ± 0.2	1.993 ± 0.018	1.523 ± 0.014	1.205 ± 0.011
m1 = 2	1108.8 ± 0.3	1105 ± 0.3	1100.6 ± 0.3	2.512 ± 0.023	1.89 ± 0.018	1.475 ± 0.014
m1 = 2.5	1129.8 ± 0.3	1125.7 ± 0.3	1121.2 ± 0.3	3.159 ± 0.029	2.341 ± 0.022	1.804 ± 0.017
m1 = 3	1148.8 ± 0.3	1144.6 ± 0.3	1139.9 ± 0.3	3.947 ± 0.037	2.873 ± 0.028	2.182 ± 0.021
m1 = 3.5	1166.3 ± 0.3	1161.9 ± 0.3	1157.1 ± 0.3	4.96 ± 0.046	3.553 ± 0.035	2.66 ± 0.026
m1 = 4	1182.2 ± 0.3	1177.7 ± 0.3	1172.7 ± 0.3	6.131 ± 0.056	4.309 ± 0.043	3.175 ± 0.033

O [water] + [Cl-].[Na+]
m2 = 0
Settings	viscosity [mPa·s]
293.15 K	1.002 ± 0.009
303.15 K	0.797 ± 0.007
313.15 K	0.653 ± 0.006

[Cl-].[Na+] [sodium chloride] + O
Settings	mass density, 293.15 K [kg/m3]	mass density, 303.15 K [kg/m3]	mass density, 313.15 K [kg/m3]	viscosity, 293.15 K [mPa·s]	viscosity, 303.15 K [mPa·s]	viscosity, 313.15 K [mPa·s]
m1 = 0.5	1018.6 ± 0.2	1015.7 ± 0.2	1011.9 ± 0.2	1.041 ± 0.009	0.835 ± 0.008	0.688 ± 0.007
m1 = 1	1037.8 ± 0.2	1034.4 ± 0.2	1030.4 ± 0.2	1.087 ± 0.01	0.873 ± 0.008	0.722 ± 0.007
m1 = 1.5	1056.3 ± 0.2	1052.6 ± 0.2	1048.4 ± 0.2	1.138 ± 0.01	0.918 ± 0.008	0.76 ± 0.007
m1 = 2	1074.1 ± 0.2	1070.1 ± 0.2	1065.7 ± 0.2	1.196 ± 0.01	0.966 ± 0.009	0.802 ± 0.007
m1 = 2.5	1091.4 ± 0.2	1087.2 ± 0.2	1082.5 ± 0.2	1.264 ± 0.011	1.021 ± 0.009	0.848 ± 0.008
m1 = 3	1107.8 ± 0.2	1103.4 ± 0.2	1098.6 ± 0.2	1.333 ± 0.012	1.077 ± 0.01	0.895 ± 0.008
m1 = 3.5	1123.9 ± 0.3	1119.2 ± 0.3	1114.3 ± 0.3	1.411 ± 0.012	1.14 ± 0.01	0.945 ± 0.009
m1 = 4	1139.2 ± 0.3	1134.4 ± 0.3	1129.3 ± 0.3	1.499 ± 0.013	1.208 ± 0.011	1 ± 0.009

O [water] + O=C[C@H](O)[C@@H](O)[C@H](O)[C@H](O)CO
m2 = 0
Settings	viscosity [mPa·s]
293.15 K	1.002 ± 0.009
303.15 K	0.797 ± 0.007
313.15 K	0.653 ± 0.006
